Laboratory results published in patent publication US4895835A, “Muramyl peptide derivatives and use thereof” (priority 1987, dated 1990).

Tests used:
[1] = tested on: E. coli (JC-2); assay: Phylactic effect, E. coli infection; assay type: in vivo; details: ICR mouse; compound 500 μg/ml, 0.2 ml i.p. one day before infection i.p. 1×10^7 /mouse; after 7 days of infection
Description: (§1) A solution of a compound of the invention in physiological saline (500 μg/ml), 0.2 ml was intraperitoneally injected into ICR mouse (20 mice per group). After a day, E. coli (JC-2) and Psud. aeruginosa (NCTC 10490) were incubated through intraperitoneal route so as to be at concentration of 1×10^7 /mouse. Survival rate after 7 days of infection was measured.

[2] = tested on: Psud. aeruginosa (NCTC 10490); assay: Phylactic effect, Psud. aeruginosa infection; assay type: in vivo; details: ICR mouse; compound 500 μg/ml, 0.2 ml i.p. one day before infection i.p. 1×10^7 /mouse; after 7 days of infection
Description: as §1

[3] = tested on: BCG killed vaccine; assay: Enhancing action on BCG vaccine (adjuvant activity), 24 hours foot-pad test; assay type: in vivo; details: ICR mouse; s.c. 0.2 ml mixture of BCG killed vaccine (100 μg/ml) and compound in Freund's incomplete adjuvant (1000 μg/ml); tuberculin 10 μg after 14 days; measured after 24 hours
Description: (1) Enhancing action on BCG vaccine (adjuvant activity)
0.2 ml of an equivalent weight mixture of a solution of BCG killed vaccine in physiological saline (100 μg/ml) and a solution of a compound of the invention in Freund's incomplete adjuvant (1000 μg/ml) was subcutaneously injected to the back of ICR mouse (one group consisting of 7 mice). After 14 days, 10 μg of tuberculin was intradermally injected into the hind foot-pad. Swelling of the foot-pad was measured after 24 hours (24 hours foot-pad test).
The control is the above mentioned mixture excluded a compound of the invention.

[4] = tested on: B type hepatitis vaccine (HBs); assay: Enhancing effect on hepatitis vaccine (adjuvant activity), IgG antibody by ELISA; assay type: in vivo; details: CDF1 mouse; for Anti HBs-ELISA unit, Primary response serum: i.p. 0.2 ml compound (100 μg/ml) mixed with HBs vaccine, serum at 3 weeks; for Anti HBs-ELISA unit, Secondary response serum: second i.p. injection of 0.2 ml test solution, serum at 2 weeks
Description: (2) Enhancing effect on hepatitis vaccine (adjuvant activity)
A compound of the invention was dissolved or suspended in physiological saline (100 μg/ml), and mixed with a solution of B type hepatitis vaccine (HBs) in physiological saline (100 μg/m) at an equivalent weight ratio to obtain the test solution. A solution excluded the compound of the invention from the test solution was used as control.
The test solution (0.2 ml) was intraperitoneally injected into CDF1 mouse (one group consisting of 10 mice). At 3 weeks after the administration, a blood was taken from the intravenous vein in eyeground of each the mice and centrifuged to obtain serum (primary response serum). Further, 0.2 ml of the test solution was again intraperitoneally injected into each mice, and at 2 weeks stage, serum was separated in the similar way (secondary response serum).
Value for IgG antibody against B type hepatitis virus of the resulting serum was measured by ELISA method.

[5] = tested on: influenza HA vaccine (A/Bangkok/10/83 strain, H1N1); assay: Enhancing effect on influenza HA vaccine (adjuvant activity), ELISA; assay type: in vivo; details: CDF1 mouse, compound (100 μg/ml) mixed with influenza HA vaccine (100 CCA/ml)
Description: (3) Enhancing effect on influenza HA vaccine (adjuvant activity)
A compound of the invention was dissolved or suspended in physiological saline (100 μg/ml). Separately, influenza HA vaccine (A/Bangkok/10/83 strain, H1N1) was dissolved in physiological saline (100 CCA/ml). These two solutions were mixed in an equivalent weight to make the test solution. Control is a solution excluded the compound of the invention from the test solution.
The test solution was administered into CDF1 mouse in a similar way to that of the test of enhancing action for hepatitis vaccine as mentioned above, to obtain primary and secondary response sera.

[6] = tested on: leukemia cells of L-1210 mouse; assay: Activation for macrophages: cytostatic rate of intraperitoneal macrophages on leukemia cells; assay type: in vivo; details: CDF1 mouse i.p. 500 μg/ml, 0.2 ml; macrophages collected after 4 days; macrophages:L-1210 cells 20:1; 72 hours
Description: (4) Activation for macrophages
A test solution of a compound of the invention in physicological saline (500 μg/ml, 0.2 ml) was intraperioneally injected into CDF1 mouse (one group consisting of mice). Intraperioneal macrophages which were collected after 4 days and leukemia cells of L-1210 mouse were mixed at the cell ratio of 20 and 1. Each 200 μl of the mixture was put on a microplate having 96 holes. After 72 hours, numbers of cells in each holes were counted, and cytostatic rate of the mixture was measured.

[7] = tested on: Meth A fibrosarcomas; assay: Antitumour effect, Meth A fibrosarcoma; assay type: in vivo; details: BALB/C mouse; s.c. 0.2 ml mixture of Meth A cells (1×10^6 cells/ml) and compound (1,000 μg/ml); after 35 days
Description: Meth A fibrosarcomas were suspended in phosphate buffered physiological saline (1×10^6 cells/ml). Separately, a solution of a compound of the invention in physiological saline was prepared (1,000 μg/ml). An equivalent weight mixture of these two solution (0.2 ml) was subcutaneously injected into BALB/C mouse (20 mice per group). Survival rate after 35 days was measured.

[8] = Stimulation effect on antibody producing cells (plaque numbers, Cunningham technique); assay type: in vivo, ICR mouse; details: for Plaque No.: ICR mouse, SRBC i.v. and compound 500 μg/ml, 0.2 ml i.v., splenic cells after 4 days; for Stimulation index: plaque number relative to control (saline) = 1
Description: (5) Stimulation effect on anti-body precluding cells
A solution of sheep […] (SRBC) in phosphate buffered physiological saline (5×10^7 cells/ml), 0.2 ml was injected into tail intravenous vein of ICR mouse (7 mice per group). At the same time, a solution of a compound of the invention in physiological saline (500 μg/ml), 0.2 ml was similarly injected. After 4 days, lien was picked up from the treated mouse to obtain splenic cells. Plaque numbers were measured by Cunningham technique.

Row | SMILES | Survival rate, E. coli [1] [%] | Survival rate, Psud. aeruginosa [2] [%] | Swelling of Foot-pad [3] [× 0.01 mm] | Anti HBs-ELISA unit, Primary response serum [4] | Anti HBs-ELISA unit, Secondary response serum [4] | Anti-influenza HA virus ELISA unit, Primary response serum [5] | Anti-influenza HA virus ELISA unit, Secondary response serum [5] | Cytostatic rate [6] [%] | Survival rate [7] [%] | Plaque No. [8] | Stimulation index [8]
1 | CCCCCCCCCCCCCC(=O)O[C@H](CCCCCCCCCCC)CC(=O)OC[C@H]1O[C@@H](S)[C@H](NC(C)=O)[C@@H](O[C@H](C)C(=O)N[C@@H](C)C(=O)N[C@H](CCC(=O)OC)C(N)=O)[C@@H]1O [Example 8, N-[[2-O-{2-Acetamido-2,3-dideoxy-6-O-[(3R)-3-tetradecanoyloxytetradecanoyl]-1-thio-β-D-glucopyranos-3-yl}-D-lactoyl]]-L-alanyl-D-isoglutamine methyl ester] | 35 | 20 | 51.8 ± 11.0 | 2,200 ELISA unit | 105,000 ELISA unit | 2,100 ELISA unit | 22,000 ELISA unit | 31.6 ± 1.6 | 5 | 8.63 ± 7.9 × 10^3 | 1.8
2 | CCCCCCCCCCCCCCCC(=O)O[C@H](CCCCCCCCCCC)CC(=O)OC[C@H]1O[C@@H](S)[C@H](NC(C)=O)[C@@H](O[C@H](C)C(=O)N[C@@H](C)C(=O)N[C@H](CCC(=O)OC)C(N)=O)[C@@H]1O [Example 9, N-[[2-O-{2-Acetamido-2,3-dideoxy-6-O-[(3R)-3-hexadodecanoyloxytetradecanoyl]-1-thio-β-D-glucopyranos-3-yl}-D-lactoyl]]-L-alanyl-D-isoglutamine methyl ester] | 40 | 15 | 49.1 ± 12.0 | 3,400 ELISA unit | 150,000 ELISA unit | 1,900 ELISA unit | 25,000 ELISA unit | 38.2 ± 2.2 | 5 | 11.00 ± 10.1 × 10^3 | 2.3
